Assays:
Assay type in all cases: cell-based, human
[1] = test system: BxPC3 pancreatic carcinoma cells; assay: MTT cytotoxicity test, BxPC3; settings: for IC50: BxPC3, 72 h, MTT, ± S.D.; for times more effective than cisplatin: BxPC3 cells
Experimental: (§1) The cytotoxic activity of the complexes and of the uncoordinated ligands was evaluated by the MTT test on a panel of human tumor cell lines containing examples of pancreatic (BxPC3), colorectal (HCT-15), breast (MCF-7), cervical (A431), and lung (A549) cancers as well as of melanoma (A375). For comparison purposes, the cytotoxicity of cisplatin was evaluated under the same experimental conditions.
(§2) Cisplatin was dissolved in 0.9% NaCl solution.
(§3) Human breast (MCF-7), colon (HCT-15), lung (A549) and pancreatic (BxPC3) carcinoma cell lines together with melanoma (A375) cells were obtained from American Type Culture Collection (ATCC, Rockville, MD). The human ovarian cancer cell line 2008 and its cisplatin resistant variant, C13*, were kindly provided by Prof. G. Marverti (Department of Biomedical Science of Modena University, Italy). Human cervical carcinoma (A431) cells were kindly provided by Prof. F. Zunino (Division of Experimental Oncology B, Istituto Nazionale dei Tumori, Milan, Italy). Cell lines were maintained in the logarithmic phase at 37 °C in a 5% carbon dioxide atmosphere using the following culture media containing 10% fetal calf serum (Euroclone, Milan, Italy), antibiotics (50 units/mL penicillin and 50 μg/mL streptomycin) and 2 mM L-glutamine: (i) RPMI-1640 medium (Euroclone) for 2008, C13*, MCF-7, HCT-15, A431 and BxPC3 cells, (ii) F-12 HAM’S (Sigma Chemical Co.) for A549 cells, iii) DMEM (Sigma Chemical Co.) for A375 cells.
(§4) The growth inhibitory effect toward tumor cells was evaluated by means of the MTT assay. Briefly, (3–8) × 10^3 cells/well, dependent upon the growth characteristics of the cell line, were seeded in 96-well microplates in growth medium (100 μL). After 24 h, the medium was removed and replaced with fresh medium containing the compound to be studied at the appropriate concentration. Triplicate cultures were established for each treatment. After 24, 48, or 72 h, each well was treated with 10 μL of a 5 mg/mL MTT saline solution and, after 5 h of incubation, 100 μL of a sodium dodecylsulfate (SDS) solution in 0.01 M HCl was added. After an overnight incubation, cell growth inhibition was detected by measuring the absorbance of each well at 570 nm using a Bio-Rad 680 microplate reader. The mean absorbance for each drug dose was expressed as a percentage of the control, untreated well absorbance and plotted vs drug concentration. The IC50 values, the drug concentrations that decrease the mean absorbance at 570 nm to 50% of that of untreated control wells, were calculated from the dose–response curves with the four-parameter logistic model (4PL). The final value is the mean ± S.D. of at least three independent experiments performed in triplicate.

[2] = test system: MCF-7 breast carcinoma cells; assay: MTT cytotoxicity test, MCF-7; settings: MCF-7, 72 h, ± S.D.
Experimental: as §1, §2, §3, §4

[3] = test system: HCT-15 colon carcinoma cells; assay: MTT cytotoxicity test, HCT-15; settings: for IC50: HCT-15, 72 h, MTT, ± S.D.; for times more effective than cisplatin: HCT-15 cells
Experimental: as §1, §2, §3, §4

[4] = test system: A431 cervical carcinoma cells; assay: MTT cytotoxicity test, A431; settings: A431, 72 h, ± S.D.
Experimental: as §1, §2, §3, §4

[5] = test system: nuclear DNA of A375 cells; assay: Nuclear DNA platination (GF-AAS); settings: A375, 5 μM, 24 h
Experimental: It is well known that the main cellular target of platinum complexes is the DNA, and platination of nuclear DNA is a critical step in triggering the death of cancer cells by platinum-based drugs. On this basis, the amount of platinum bound to nuclear DNA was also assessed in A375 cells treated with the tested Pt(IV) complexes. Cells were treated for 24 h with 5 μM of the tested complexes, the nuclear DNA was isolated and the amount of Pt in each sample was determined by means of GF-AAS analysis. The results expressed as pg Pt/ng DNA are depicted in Fig. 7. […] In particular, 1P led to a roughly 60-fold higher DNA platination level with respect to cisplatin.
A375 cells (3 × 10^6) were seeded in 10 cm Petri dishes in 10 mL of culture medium. Subsequently, cells were treated with the tested complexes (5 μM) for 24 h. The DNA was extracted and purified by a commercial spin column quantification kit (Qiagen DNeasy Blood and Tissue Kit). Only highly purified samples (A260/A230 ≅ 1.8 and […]) were included for analysis to avoid any artifacts. The samples were completely dried and re-dissolved in 200 μL of Milli-Q water (18.2 MΩ) for at least 20 min at 65 °C in a shaking thermo-mixer, mineralized and analyzed for total Pt content by GF-AAS as described above.

A375 cells = assay: ROS production (CM-H2DCFDA probe); settings: A375, 12.5 μM, compared with antimycin positive control
Experimental: ROS are products of normal cell metabolism but their levels can be increased upon exposure to toxic agents or interference with the cellular redox network. […] Consequently, cellular ROS levels upon treatment with equal doses (12.5 μM) of the different platinum complexes were monitored in A375 cancer cells by using the peroxide-sensitive fluorescent probe CM-H2DCFDA (5-(and-6)-chloromethyl-2′,7′-dichlorodihydrofluorescein diacetate, acetyl ester). Antimycin, a classical inhibitor of the mitochondrial respiratory chain at the level of complex III, was used as a positive control.
Figure 8 ROS production in A375 cells. Cells were preincubated in PBS/10 mM glucose medium for 20 min at 37 °C in the presence of 10 μM CM-DCFDA and then treated with equimolar doses (12.5 μM) of indole propionic acid Pt(IV) derivatives (panel A) or indole acetic acid Pt(IV) derivatives (panel B). The fluorescence of DCF was measured.
The production of ROS was measured in A375 cells (10^4 per well) grown for 24 h in 96-well plates in DMEM medium without phenol red (Sigma Chemical Co.). Cells were then washed with PBS and loaded with 10 μM 5-(and-6)-chloromethyl-2′,7′-dichlorodihydrofluorescein diacetate, acetyl ester (CM–H2DCFDA) (Molecular Probes-Invitrogen) for 25 min in the dark. Afterwards, cells were washed with PBS and incubated with increasing concentrations of the tested complexes. The fluorescence increase was estimated with a plate reader (Fluoroskan Ascent FL, Labsystem, Finland) at 485 (excitation) and 527 nm (emission). Antimycin (3 μM, Sigma Chemical Co.), a potent inhibitor of Complex III in the electron transport chain, was used as positive control.

## [NH2][Pt]([NH2])([OH])([Cl])([Cl])[O]C(=O)Cc1c[nH]c2ccccc12 [Complex 1A]
[1]
  IC50: 2.64 ± 0.97 µM
  times more effective than cisplatin: four times
[2]
  IC50: 3.62 ± 0.94 µM
[3]
  IC50: 9 ± 3.13 µM
  times more effective than cisplatin: about two times
[4]
  IC50: 2.1 ± 1.04 µM
[5]
  DNA platination (in words): most effective platination of cellular DNA

## [NH2][Pt]([NH2])([OH])([Cl])([Cl])[O]C(=O)CCc1c[nH]c2ccccc12 [Complex 1P, cis,cis,trans-[Pt(NH3)2Cl2(IPA)(OH)]]
[1]
  IC50: 2.26 ± 0.99 µM
  times more effective than cisplatin: four times
[2]
  IC50: 3.78 ± 0.16 µM
A375 cells
  ROS production (in words): superior to that induced by antimycin
[3]
  IC50: 3.66 ± 0.91 µM
  times more effective than cisplatin: about two times
[4]
  IC50: 1.62 ± 0.34 µM
[5]
  DNA platination (in words): highest degree of DNA platination
[5]; GF-AAS
  DNA platination level, fold higher than cisplatin: roughly 60

## [NH2][Pt]([NH2])([Cl])([Cl])([O]C(=O)Cc1c[nH]c2ccccc12)[O]C(=O)c1ccccc1 [Complex 3A]
[1]
  IC50: 2.56 ± 1.07 µM
[2]
  IC50: 3.76 ± 0.76 µM
[3]
  IC50: 3.67 ± 1.31 µM
[4]
  IC50: 6.31 ± 0.94 µM
[5]
  DNA platination (in words): most effective platination of cellular DNA

## [NH2][Pt]([NH2])([Cl])([Cl])([O]C(=O)CCC(=O)O)[O]C(=O)Cc1c[nH]c2ccccc12 [Complex 4A]
[1]
  IC50: > 50 µM
[2]
  IC50: > 50 µM
A375 cells
  ROS production (in words): did not alter the cellular ROS concentration
[3]
  IC50: > 50 µM
[4]
  IC50: 3.94 ± 0.57 µM
[5]
  DNA platination (in words): lowest DNA platination capability

## CC(=O)[O][Pt]([NH2])([NH2])([Cl])([Cl])[O]C(=O)Cc1c[nH]c2ccccc12 [Complex 5A]
[1]
  IC50: 44.4 ± 6.19 µM
[2]
  IC50: 43.26 ± 0.22 µM
A375 cells
  ROS production (in words): did not alter the cellular ROS concentration
[3]
  IC50: 44.75 ± 0.07 µM
[4]
  IC50: 3.07 ± 0.31 µM
[5]
  DNA platination (in words): lowest DNA platination capability

— paper PMC4941645, “Oxidative Stress Induced by Pt(IV) Pro-drugs Based on the Cisplatin Scaffold and Indole Carboxylic Acids in Axial Position” (Scientific Reports, 2016)
